Data reported in article PMC7188728, “A phase I study investigation of metabolism, and disposition of [^14C]-anlotinib after an oral administration in patients with advanced refractory solid tumors” (Cancer Chemotherapy and Pharmacology, 2020).
pIC50: −log10 of the molar value. Counter-ions that a name gives are not always drawn.

Legend:
[1] = Total radioactivity pharmacokinetics in plasma after single oral [14C]-anlotinib hydrochloride; type: in vivo, human
Experimental: The blood samples were collected before orally administration and 0.5, 2, 4, 8, 10, 12, 24, 48, 72, 96, 120, 144, 168, 192, 216, 240, 288, 312, 384, 408, 456, 480, 552, 840, 888, and 1416 h after orally administration. An aliquot of the blood samples was mixed gently and chilled immediately under − 20 °C; the remainder was centrifuged at 1660 g for 10 min at 4 °C to separate the plasma samples.
Levels of radioactivity in plasma, urine, and extracts of fecal samples were determined by mixing individual samples with 5 mL scintillation cocktail and determined by counting directly in a liquid scintillation counter (LSC). Blood, fecal homogenates, and post extraction solids were combusted with OX-501 Biological Sample Oxidizer, the ^14CO2 formed were trapped directly in 15 mL scintillation cocktail, followed by counting with LSC. Samples were assayed with a liquid scintillation counter for 5 min.
The peak concentration (Cmax) and the time to Cmax (Tmax) were obtained through the plasma concentration directly. The area under concentration–time curve up to the last measured time point (AUC0−t) was calculated by the trapezoidal rule. The k was estimated by linear regression analysis of the terminal portion of the log concentration–time data, and the elimination half-life (t1/2) was calculated through the coefficient 0.693/k. The renal clearance (CLR) was calculated by dividing the cumulative amount excreted into urine (Cum. Ae−U) by plasma AUC0−t.

[2] = Metabolite radio-profiling (LC-RAM, LC-MS/MS) of plasma, urine and feces; type: in vivo, human
Experimental: An equal volume of 2, 4, 8, 12, 24, and 96 h plasma sample was pooled by time-point across subject 03 ~ 06, to give six pooled plasma samples for metabolite profiling. An appropriate volume (3x, v/v) of acetonitrile was added to a portion of the pooled plasma sample, followed by vortexing ca. 2 min. After storage in a refrigerator for ca. 30 min, the mixture was centrifuged at ca. 10000 g at 4 °C for 10 min. The supernatant was then separated from the PES, which was suspended with water, followed by addition of methanol (2x, v/v) twice. The three extracts were combined and evaporated to dryness under a nitrogen stream by an N-Evap evaporator at room temperature. The residues were reconstituted with an appropriate volume of methanol:water (1:1, v/v) and centrifuged at ca. 10000 g at 4 ℃ for 10 min. The supernatant was subjected to HPLC radio-profiling.
Four pooled human urine samples (subject 03 ~ 06) were pooled from 0 to 432 h based on equal volume ratios from the individual patients across time intervals. In addition, three pooled urine samples (0–48, 48–120 and 360–432 h) (subjects 03–06) were prepared by pooling human urine samples across subjects and time points. Portion of the pooled urine sample was evaporated to a small volume under a nitrogen stream and extracted with methanol (3x, v/v) followed by centrifuged at ca. 10000 g at 4 ℃ for 10 min. The supernatant was reconstituted with an appropriate volume of methanol:water (1:1, v/v) and centrifuged at ca. 10000 g at 4 ℃ for 10 min. The supernatant was subjected to HPLC radio-profiling.
Four human fecal samples (0–432 h) were prepared by pooling feces from individual subjects (Subjects 03–06). In addition, three pooled human fecal samples (0–48, 48–120 and 360–432 h) were prepared by pooling feces samples across subjects and time points. The pooled fecal homogenate was extracted with methanol (3x, v/v) and the mixture was vortexed, and centrifuged at ca. 10000 g at 4 ℃ for 10 min. The supernatant was then separated from the PES, which was suspended with water, followed by addition of methanol twice. The three extracts were combined and evaporated to dryness under a nitrogen stream by an N-Evap evaporator at room temperature. The residues were reconstituted with an appropriate volume of methanol:water (1:1, v/v) and centrifuged at ca. 10000 g at 4 ℃ for 10 min prior to analysis.
HPLC coupled with radioactivity monitor (LC-RAM) was used to isolate and quantitate [^14C] anlotinib and its metabolites. The plasma and fecal extracts as well as urine supernatants were subjected to HPLC separation, fractionation, and eluent collection. The radioactivity in each fraction was monitored by solid scintillation counting using a Packard TopCount® NXT™ Microplate Counter. The radio-profiles were then reconstructed using ARC® Convert software. The peak area of each radioactivity peak/region was integrated using ARC® Evaluation software, and the percent distribution of each peak/region was calculated (%TRA for plasma or %Dose for urine and feces).
Metabolites were characterized and/or identified by LC–MS/MS in conjunction with on-line radioactivity detection. Structures of metabolites were proposed by interpretation of the mass spectral fragmentation pattern, as well as chromatographic behaviors and metabolic pathways.

[3] = tested on: advanced refractory solid tumors; experiment: Tumor response evaluation in patients with advanced refractory solid tumors; type: in vivo, human; conditions: six patients enrolled
[4] = tested on: human cytochrome P450 2C9; set-up: method as in PMID 29441353; conditions: in vitro; read-out: Half maximum inhibitory concentration; cited from earlier work
VEGFR2/KDR and VEGFR3 = tested on: VEGFR2/KDR and VEGFR3; set-up: method as in PMID 29454091; conditions: recombinant enzymes; cited from earlier work
[5] = set-up: method as in PMID 29620050; conditions: rats and dogs; cited from earlier work
[6] = six male patients, single oral 14.15 mg/80 or 120 µCi
[7] = suspension here vs capsule in the previous study

COc1cc2c(Oc3ccc4[nH]c(C)cc4c3F)ccnc2cc1OCC1(N)CC1 [anlotinib, 1-[[4-(4-fluoro-2-methyl-1H-indol-5-yloxy)-6-methoxyquinolin-7-yl]oxy]methyl) cyclopropanamine dihydrochloride]
AUC0-last (AUClast) of total radioactivity in plasma, average [1, 6]: 4071 h∙ng Eq./g | AUC0-∞ of total radioactivity in plasma, average [1, 6]: 13,555 h∙ng Eq./g | Cmax of total radioactivity (TRA) in plasma, average [1, 6]: 18.80 ng Eq./g | Tmax of total radioactivity (TRA) in plasma, average [1, 6]: 4.42 h | AUC relative to the published phase I study [1, 7]: twice | Cmax relative to the published phase I study [1, 7]: twice | Drug-related component in feces, % of the dose ([2]; feces, pooled 0–432 h, subjects 03–06, single oral 14.15 mg/120 μCi): 5.64 % of the dose | Drug-related component in human plasma (radio-profile) ([2]; pooled plasma 2–96 h, subjects 03–06, listed as parent drug): major drug-related component | Drug-related component in urine, % of the dose ([2]; urine, pooled 0–432 h, subjects 03–06, single oral 14.15 mg/120 μCi): 0.73 % of the dose | Tumor response: partial response (PR) [3]: one | Tumor response: progressive disease (PD) [3]: one | pIC50 [4]: 6.60 | Capability to inhibit VEGFR2/KDR and VEGFR3, times stronger compared with sorafenib (VEGFR2/KDR and VEGFR3): ~500 times | Capability to inhibit VEGFR2/KDR and VEGFR3, times stronger compared with sunitinib (VEGFR2/KDR and VEGFR3): approximately 20 times | Absorption [5]: absorbed quickly | Membrane permeability [5]: good membrane permeability
